Test [1] addresses T1, SARS-CoV-2 nsp13 (Severe acute respiratory syndrome coronavirus 2, UniProt P0DTD1). Put plainly: BODIPY FL ATP-γ-S fluorescence assay (ATP binding). Conditions: for fluorescence intensity of BODIPY FL ATP-γ-S with nsp13: 1 μM compound, 10 min pre-incubation, 10 nM BODIPY FL ATP-γ-S.
The target of test [2] is T2, SARS-CoV-2 nsp13 (helicase) (Severe acute respiratory syndrome coronavirus 2, UniProt P0DTD1). Put plainly: ATPase assay (phosphate release). In kind it is biochemical. The conditions noted are these: for IC50: 20 nM nsp13, n = 3, read-out: IC50 (± SD) ATPase.
For test [3], the target named is T1, SARS-CoV-2 nsp13. Put plainly: Metal displacement analysis (equilibrium dialysis, ICP-MS), nsp13. In kind it is binding. Here is the method: Nsp13 also consists of 3 zinc finger sites at its N-terminal zinc-binding domain. Therefore, we first investigated whether Au(I) could interact with zinc fingers in nsp13 by equilibrium dialysis.
Au(I) binding and Zn(II) release on nsp10 and nsp14 were determined by Inductively Coupled Plasma Mass Spectrometry (ICP-MS) on Agilent 7700 × ICP-MS (Agilent Technologies). […] Dialysis tubes loaded with 100 μL Zn-bound proteins (5 μM for nsp14 and nsp13 and 20 μM for nsp10) or protein buffer were placed into 50 mL dialysis buffer in the presence of different concentrations of Au(I) compounds (as Au(PEt3)Cl) with mild shaking at 18 °C overnight. The protein concentration was measured by bicinchoninic acid (BCA) assay, and the metal concentration of solution both inside and outside the dialysis tubes was determined by ICP-MS.
A general note: Equilibrium dialysis compares concentrations on both sides of a semipermeable membrane.

Test [4] addresses T1, SARS-CoV-2 nsp13. Put plainly: EMSA of nsp13 binding to dsDNA substrate. The conditions noted are these: 2 μM nsp13, 0, 2, 10 and 20 μM compound, 2 h, 100 nM DNA. Here is the method: We preincubated 2 μM nsp13 with different concentrations (0, 2, 10 and 20 μM) of Au(PEt3)Cl for 2 h at room temperature, then incubated with 100 nM DNA substrate to form the protein-dsDNA complex.
EMSA for investigating the binding between nsp13 and DNA substrates was performed as previously reported. Briefly, 2 μM nsp13 was incubated with Au(PEt3)Cl in a dose-dependent manner in 20 μL binding buffer (20 mM Tris pH 7.4, 20 mM NaCl, 1 mM TCEP, 5 mM MgCl2) for 2 h at 25 °C. Then, incubated per sample at 37 °C with 100 nM dsDNA. After 15 min incubation, the reaction was stopped by 4 μL loading buffer (50% glycerol, 0.02% bromophenol blue). The reaction mixture was electrophoresed in 8% native-polyacrylamide gels at 150 V for 1 h. The gel was stained by GelRed (Sigma Aldrich) for 10 min and images were captured by iBright™ CL750 Imaging System (Thermo Fisher Scientific).
Fig. S3 EMSA image of the binding between DNA substrate and nsp13 in the presence of increasing
amounts of Au(I)- based compound (as Au(PEt3)Cl).
(1 picture or pasted object on this page, not shown here)

Test [5] has as its target T2, SARS-CoV-2 nsp13 (helicase). Put plainly: FRET DNA duplex unwinding assay. The conditions noted are these: for IC50: 20 nM nsp13, n = 3, read-out: IC50 (± SD) DNA unwinding. In kind it is biochemical.
Test [6] relates to SARS-CoV-2 variants Omicron BA.5.2 and XBB in VeroE6-TMPRSS2 cells. It counts as cell-based.

Results on six molecules are retold here after publication PMC12316777.

The IC50 is the point on the concentration scale where inhibition reaches its midpoint. One may read the Kd as a measure of binding affinity in units of concentration.

With `CCP(CC)CC.[Au+].[Cl-]` [Au(PEt3)Cl, chloro(triethylphosphine)gold(I)], at SARS-CoV-2 nsp13 [1], the “fluorescence intensity of BODIPY FL ATP-γ-S with nsp13” value is given as “decreased”. For the same molecule, the “fluorescence intensity of BODIPY FL ATP-γ-S with nsp13, dose dependence” value on SARS-CoV-2 nsp13 [1] (0.1, 0.2, 0.5 and 1 μM) is on record as “decreased in a dose-dependent manner”. Further, the IC50 in test [2] was determined as 400 ± 90 nM. Also, the “inhibition of ATPase activity” value in test [2] (50 mol equiv of compound) was “more than 50%”. At SARS-CoV-2 nsp13 [3] (equilibrium dialysis, ICP-MS), the “Au(I) bound to nsp13” value was “ca. 2.97 ± 0.20 mol equiv” and the “Zn(II) release from nsp13” value is listed as “ca. 2.88 ± 0.18 mol equiv”. The “maximal binding capacity (Bmax), nsp13” value at SARS-CoV-2 nsp13 [3] (nonlinear fit to specific binding plot) worked out at 3.33 ± 0.11. For the same molecule, the Kd at SARS-CoV-2 nsp13 [3] (nonlinear fit to specific binding plot, read-out: dissociation constant (Kd), nsp13) was 2290 ± 220 nM. In addition, the “effect on binding of nsp13 to dsDNA” value at SARS-CoV-2 nsp13 [4] is recorded as “did not disrupt”. Also, the IC50 in test [5] came to 330 ± 40 nM. Besides, in test [5] (50 mol equiv of compound), the “inhibition of DNA unwinding activity” value is on record as “more than 50%”.

Turning to `CC[PH](CC)(CC)[Au][S]CC(NC(=O)CCC(N)C(=O)O)C(=O)NCC(=O)O` [Au-GSH, ((R)-2-((S)-4-amino-4-carboxybutanamido)-3-((carboxymethyl)amino)-3-oxopropyl)thiolate)-(triethyl-phosphine)-gold(I)], the “ATPase enzymatic activity remaining” value in test [2] (50 mol equiv of compound) is reported as 51.33%. Also, the “DNA unwinding enzymatic activity remaining” value in test [5] (50 mol equiv of compound) is on record as 41.67%.

With `[Cl][Au]` [AuCl, gold(I) chloride], the “fluorescence intensity of BODIPY FL ATP-γ-S with nsp13” value at SARS-CoV-2 nsp13 [1] is on record as “decreased”. Moreover, the IC50 stood at 200 ± 10 nM in test [2] and 200 ± 30 nM in test [5]. Moreover, in test [2] (50 mol equiv of compound), the “inhibition of ATPase activity” value was “more than 50%”. Further, in test [5] (50 mol equiv of compound), the “inhibition of DNA unwinding activity” value is listed as “more than 50%”.

Regarding `O=S(=O)([O-])[S-].O=S(=O)([O-])[S-].[Au+].[Na+].[Na+].[Na+]` [Na3Au(S2O3)2, gold(I) sodium thiosulfate], the “fluorescence intensity of BODIPY FL ATP-γ-S with nsp13” value on SARS-CoV-2 nsp13 [1] is recorded as “decreased”. The IC50 is 250 ± 80 nM in test [2] and 380 ± 50 nM in test [5]. The “inhibition of ATPase activity” value in test [2] (50 mol equiv of compound) is “more than 50%”. Besides, the “inhibition of DNA unwinding activity” value in test [5] (50 mol equiv of compound) was “more than 50%”.

In the case of `CC(=O)OC[C@H]1O[C@@H]([S-])[C@H](OC(C)=O)[C@@H](OC(C)=O)[C@@H]1OC(C)=O.CCP(CC)CC.[Au+]` [auranofin], the “maximum reduction of viral load in the cell culture supernatant” value in test [6] was 4 − 6 log10 units.

Take “(1-(adamantan-1-yl)thiourea)-(triethylphosphine)-gold(I) [Au-amantadine]”: at SARS-CoV-2 nsp13 [1], the “fluorescence intensity of BODIPY FL ATP-γ-S with nsp13” value was “decreased”. For the same molecule, the IC50 in test [2] was 1150 ± 230 nM; in test [5] it was 720 ± 130 nM.
